Reference: patent US20170136085A1, “TARGETED THERAPEUTICS” (SYNTA PHARMACEUTICALS CORP., priority 2014, published 2017)

Tested on: HER2
Assay: Degradation of HER2 in cells, Method 1 (SDS-PAGE / immunoblot)
Format: cell-based
Details: BT-474 cells, 0.5 μM, overnight in DMEM medium
Procedure: BT-474 cells are treated with 0.5 μM, 2 μM, or 5 μM of 17-AAG (a positive control) or 0.5 μM, 2 μM, or 5 μM of an Hsp90-targeting moiety or conjugate of the invention overnight in DMEM medium. After treatment, each cytoplasmic sample is prepared from 1×10^6 cells by incubation of cell lysis buffer (#9803, Cell Signaling Technology) on ice for 10 minutes. The resulting supernatant used as the cytosol fractions is dissolved with sample buffer for SDS-PAGE and run on a SDS-PAGE gel, blotted onto a nitrocellulose membrane by using semi-dry transfer. Non-specific binding to nitrocellulose is blocked with 5% skim milk in TBS with 0.5% Tween at room temperature for 1 hour, then probed with anti-HER2/ErB2 mAb (rabbit IgG, #2242, Cell Signaling) and anti-Tubulin (T9026, Sigma) as housekeeping control protein. HRP-conjugated goat anti-rabbit IgG (H+L) and HRP-conjugated horse anti-mouse IgG (H+L) are used as secondary Ab (#7074, #7076, Cell Signaling) and LumiGLO reagent, 20× Peroxide (#7003, Cell Signaling) is used for visualization. The Hsp90 client protein HER2 is degraded when cells are treated with Hsp90-targeting moieties or SDC-TRAPs of the invention.

C=CCNC1=C2C[C@@H](C)C[C@H](OC)[C@H](O)[C@@H](C)/C=C(\C)[C@H](OC(N)=O)[C@@H](OC)/C=C\C=C(/C)C(=O)NC(=CC1=O)C2=O [17-AAG]
degradation of HER2: partial degradation
